US20240391964A1, “COMPOSITIONS AND METHODS FOR THE TREATMENT OF CANCER” (The University of Western Australia, priority 2020, published 2024)

How the values were obtained:
SUM159 cells [1] = details: 24 hours, mean±SEM
Experimental: To assess anticancer efficacy and selectivity, both venom from European honeybees collected in Perth, Australia and melittin peptide were evaluated in dose-response assays in a panel of cell lines representative of the intrinsic breast cancer subtypes and in non-transformed cells.

[2] = system: T11, OVCAR3, SUM159 and SKBR3 cells; experiment: Cell viability, RGD1-melittin with docetaxel; assay type: cell-based; details: 24 h, non-constant ratio
Experimental: (§1) Cell viability assays of T11, OVCAR3, SUM159 and SKBR3 cells treated with RGD1-melittin alone and in combination with docetaxel were performed. Cells were seeded overnight at a density of 5000 cells/p96-well plate and treated with active RGD1-melittin alone or combined with docetaxel and administered at concentrations indicated in a non-constant ratio in the respective cell lines for 24 h. Cell viability was assessed using the CellTiter-Glo® assay.
(§2) The combination effect for different fractions of cells impacted in each combination were calculated using the Chou and Talalay algorithm included in the freely available CompuSyn software. Combination index (CI)<1 means synergism, CI=1 means additive and CI>1 means antagonism.

SUM159 cells [3] = experiment: Cleaved caspase-3 immunoblot; assay type: cell-based, human; details: 24 hours
T11 cells [4] = experiment: Cell viability, combination with docetaxel; assay type: cell-based, murine; details: T11, 48 hours
Experimental: FIG. 15 presents the results of cell viability assays of T11 breast cancer cells treated with melittin or RGD1-melittin alone and in combination with docetaxel for 48 hours. Representative plots of the combination treatments are presented as mean±SEM.
The murine p53 TNBC cell line T11 was treated with docetaxel in combination with either melittin or RGD1-melittin, and cell viability assays were conducted to determine the combination effect between the treatments (FIG. 15).

T11 cells [5] = experiment: Cell viability, combination with omomyc; assay type: cell-based, murine; details: T11, 24 hours
Experimental: FIG. 16 presents the results of cell viability assays of T11 breast cancer cells treated with melittin or RGD1-melittin alone and in combination with omomyc for 24 hours. Representative plots of the combination treatments are presented as mean±SEM.
The murine p53 TNBC cell line T11 was treated with omomyc in combination with either melittin or RGD1-melittin, and cell viability assays were conducted to determine the combination effect between the treatments (FIG. 16).

[6] = system: Ki-67 and PD-L1 in T11, SUM159 and SKBR3 cells; experiment: Immunofluorescence of Ki-67 and PD-L1; assay type: cell-based; details: 24 h at IC50 concentrations, all three cell lines
Experimental: The expression of PD-L1 of TNBC cells (T11 and SUM159) and HER2-enriched breast cancer cells (SKBR3) treated with active RGD1-melittin and mutant RGD1-melittin (DEDE RGD1-melittin) was measured using immunofluorescence.
Cells were seeded overnight on coverslips at a density of 3×105 in a p24-well plate coated with poly-L-lysine (Sigma-Aldrich) for 20 min and then washed twice with purified water. […] The cells were washed three times with PBS and then incubated with a goat α-mouse secondary Alexa Fluor 488-conjugated antibody (Thermo Fisher Scientific #A11001, 1:500) and Hoechst-33258 (1:5000) in PBS for 1 h at room temperature. After three more washes of PBS, the coverslip containing cells were mounted onto glass […] with SlowFade Diamond Antifade Mountant (Thermo Fisher Scientific). Slides were imaged using the confocal fluorescence Nikon Ti inverted microscope. Images were taken at 40× magnification and processed using ImageJ.

T11 cells [7] = experiment: Cell viability assay of melittin variants, T11; assay type: cell-based, murine; details: t-test p=0.652
Experimental: FIG. 5 presents the lack of anticancer activity of DEDE-melittin, and the breast cancer cell selectivity of the melittin fusion peptide RGD1-melittin. FIG. 5A presents cell viability assays of TNBC (SUM159) and HER2-enriched (SKBR3) cells treated with DEDE-melittin for 24 hours. FIG. 5B presents cell viability assays of T11 cells treated with melittin, RGD1-melittin, SV40-melittin, TAT-melittin and DEDE-melittin. FIG. 5C presents cell viability assays of human dermal fibroblasts (HDFa) and SUM159 treated with melittin (top) and RGD1-melittin (bottom) for 24 hours.
To assess the functional role of the positive (K21RKR24) sequence (SEQ ID NO: 4) in the C-terminus of melittin, a negatively charged melittin peptide (D21EDE24-melittin; SEQ ID NO: 6) was designed. These negative residues were predicted to disrupt the binding of melittin with the plasma membrane. […] However, the potency of melittin and SV40-melittin were greater than TAT-melittin, which could be due to the larger size of TAT.

[8] = system: PD-L1 in T11, SUM159 and SKBR3 cells; experiment: qRT-PCR of PD-L1 expression; assay type: cell-based; details: 24 h at IC50; p<0.005 T11, p<0.05 SUM159, p<0.005 SKBR3
Experimental: The level of PD-L1 expression was also measured in T11, SUM159 and SKBR3 treated with active RGD1-melittin and mutant RGD1-melittin peptides, or vehicle treated only, using qRT-PCR.
Cells were seeded overnight at a density of 3×105 in a p6-well plate. […] Cells were washed once with PBS before RNA was extracted from the cells using QIAzol Lysis. Reagent (QIAGEN) according to manufacturer's instructions. 500 ng of purified total RNA was used as the template for cDNA synthesis using the High Capacity cDNA Reverse Transcription Kit (Applied Biosystems). Relative quantification of PD-L1 transcript expression was obtained by quantitative real-time PCR (qRT-PCR) using fluorescent TaqMan probes (Applied Biosystems) and run on the ViiA 7TM Real-Time PCR machine (Applied Biosystems). Data were analysed by QuantStudio Real-Time PCR Software (Applied Biosystems) and results were expressed as fold change compared to untreated cells, respectively, after normalization against the GAPDH mRNA levels.

SUM159 cells [9] = experiment: Immunofluorescence subcellular localization with anti-melittin antibody; assay type: cell-based, human; details: 30 minutes, IC50 concentrations
COV362 cells = assay type: cell-based
Experimental: (§3) The OVCAR3 and COV362 ovarian cancer cell lines were treated with active RGD1-melittin and mutant RGD1-melittin (DEDE-RGD1-melittin). The COV362 cells were cultured in DMEM low glucose medium supplemented with 10% FBS. The OVCAR3 cells were grown in RPMI medium supplemented with 20% FBS. Cells were seeded overnight at a density of 5000 cells/p96-well plate and treated with active RGD1-melittin and mutant RGD1-melittin (RGD1-DEDE melittin), for 24 h at concentrations up to 20 µM. After treatments, cell viability was assessed using the CellTiter-Glo® assay according to the manufacturer's protocol (Promega; NSW, Australia). Luminescence signals were measured using the EnVision Multilabel Plate Reader (PerkinsElmer Inc.; Waltham, MA, USA). IC50s were calculated and transformed 95% confidence intervals provided by GraphPad Prism 6 software analysis (GraphPad Software Inc., San Diego, CA, USA).

OVCAR3 cells = assay type: cell-based
Experimental: as §3

[10] = system: T11, OVCAR3 and COV362 cells; experiment: Cell viability, RGD1-melittin with cisplatin; assay type: cell-based; details: 24 h, non-constant ratio
Experimental: as §1, with “T11, OVCAR3, and COV362” for “T11, OVCAR3, SUM159 and SKBR3”, “OVCAR3, and COV362 cells treated” for “SUM159 and SKBR3 cells treated”, “combination with cisplatin were performed.” for “combination with docetaxel were performed.”
as §2

CC[C@H](C)[C@H](NC(=O)CNC(=O)[C@H](CCCCN)NC(=O)[C@H](CCCCN)NC(=O)[C@H](CC(C)C)NC(=O)[C@H](CCCNC(=N)N)NC(=O)CNC(=O)[C@H](CC(C)C)NC(=O)[C@H](CC(=O)O)NC(=O)CNC(=O)[C@H](CCCNC(=N)N)NC(=O)CNC(=O)[C@@H](N)Cc1c[nH]cn1)C(=O)NCC(=O)N[C@@H](C)C(=O)N[C@H](C(=O)N[C@@H](CC(C)C)C(=O)N[C@@H](CCCCN)C(=O)N[C@H](C(=O)N[C@@H](CC(C)C)C(=O)N[C@H](C(=O)N[C@H](C(=O)NCC(=O)N[C@@H](CC(C)C)C(=O)N1CCC[C@H]1C(=O)N[C@@H](C)C(=O)N[C@@H](CC(C)C)C(=O)N[C@H](C(=O)N[C@@H](CO)C(=O)N[C@@H](Cc1c[nH]c2ccccc12)C(=O)N[C@H](C(=O)N[C@@H](CCCCN)C(=O)N[C@@H](CCCNC(=N)N)C(=O)N[C@@H](CCCCN)C(=O)N[C@@H](CCCNC(=N)N)C(=O)N[C@@H](CCC(N)=O)C(=O)N[C@@H](CCC(N)=O)C(=O)O)[C@@H](C)CC)[C@@H](C)CC)[C@@H](C)O)[C@@H](C)O)C(C)C)C(C)C [RGD1-melittin]
ratio of the IC50s of HDFa/SUM159 (SUM159 cells [1]): 2.73±0.14
sensitization to docetaxel (cell viability, combination index) [2]: significantly sensitized all four tested cell lines to docetaxel
induction of apoptosis (cleaved caspase-3) (SUM159 cells [3]): confirmed the anticancer activity
combination effect with docetaxel on cell viability (T11 cells [4]): beneficial effect when combined with docetaxel
combination effect with omomyc on cell viability (T11 cells [5]): beneficial effect when combined with omomyc
PD-L1 expression (immunofluorescence) [6]: reduced
cell proliferation (Ki-67) [6]: reduced
IC50 compared to parental melittin (T11 cells [7]): not significantly different compared to parental melittin
level of PD-L1 (qRT-PCR) [8]: significantly reduce
subcellular localization / anti-melittin staining (SUM159 cells [9]): distinctively targeted to the plasma membrane alone
fold lower IC50 than active melittin (COV362 cells; COV362): approximately 3.7 fold
IC50 (COV362 cells; COV362, 24 h): 2100 nM
fold lower IC50 than active melittin (OVCAR3 cells; OVCAR3): approximately 6 fold
IC50 (OVCAR3 cells; OVCAR3, 24 h): 3360 nM
sensitization to cisplatin (cell viability, combination index) [10]: significantly sensitized all three tested cell lines to cisplatin
